{
  "source": "patent US20230219964A1",
  "about": "“ANTIBACTERIAL AND ANTIFUNGAL PLEUROMUTILIN CONJUGATES” (SYDDANSK UNIVERSITET, priority 2020, published 2023)",
  "key": {"[1]": {"test_system": "Multi-resistant Staphylococcus aureus (MRSA) USA300 cells", "test": "MIC in vitro broth micro-dilution assay, MRSA USA300", "type": "cell-based", "conditions": "Staphylococcus aureus", "experimental": "(§1) Bacterial susceptibility was established through an in vitro cell-based broth micro-dilution assay. To produce accurate and reproducible MIC-values, a procedure was used which follows the guidelines set by the Clinical and Laboratory Standards Institute (CLSI, USA) and the European Committee on Antimicrobial Susceptibility Testing (EUCAST). The micro-dilutions were carried out in 96-well plates, according to FIG. 3, wherein column 1 is a growth control, Columns 2 to 11 are dilutions of 1×, 2×, 4×, 8×, 16×, 32×, 64×, 128×, 256×, 512× respectively, and column 12 is a sterile control. To further increase the reliability of each susceptibility test, inoculation involved the use of three independent overnight cultures (ON1-ON3) thus giving rise to […]. Furthermore, each ON was added to two individual dilution rows, giving rise to […]. The standard inoculum was set to ˜5-10^5 colony-forming units (CFU) mL^−1. This was verified by dilution onto agar plates after each overall run.\n(§2) The applied procedure was:\n(§3) 1.1 MH or BHI agar plates for dilutions were created, 1 plate per overnight (ON) culture and MH or BHI media. 1.2 Day 1: Preparation of ON cultures of the bacterial strain in question, by inoculation of a single colony in 5 mL of MH or BHI media. Then incubation at 37° C. with aeration for approximately 16-20 hours. Biological triplicates were created by inoculation from 3 different colonies per strain.\n(§4) 1.3 Day 2: A 96-well plate with the antibiotic/compound in question was prepared as according to FIG. 3: 1.4 In a 15 mL falcon tube, an appropriate volume of a 1000 μg/mL antibiotic/compound DMSO stock was diluted with MH or BHI media such that a 2× concentration and total volume of 10 mL was achieved. 1.5 A multi-channel pipette was used in the following. 1.6 Column 1 was used for growth control, so no antibiotic/compound was added to that column. 1.7 200 μl of 2× concentration of the antibiotic/compound was added to column 2. Technical duplicates were always created, thus 2 columns per ON culture. 1.8 100 μl of MH or BHI media was added to columns 1, 3-11 and 200 μl of MH or BHI media to column 12. 1.9 100 μl was transferred from column 2 to column 3. The same pipetting tips were used to transfer 100 μL from column 3 to 4. This scheme was repeated until column 11 where 100 μl was discarded after re-suspending. Column 12 was used as a sterile control, so no antibiotic/compound was added to that column. Each transferring involved pipetting up and down 5 to 7 times. 1.10 The plates were fully dried for CFU in the 42° C. incubator, 4× dilutions in triplicates per one plate.\n(§5) 1.11 The optical density of bacterial cells in the ON culture was measured at wavelength 600 nm (OD600). Then the ON culture was diluted to an OD600=0.1. 1.12 Then the OD600 was re-measured to make certain that it was between 0.08 and 0.13. 1.13 The prepared 0.1 culture of 1.12 was diluted 100× more by transferring of 100 μl thereof, to 10 ml of MH or BHI media (enough for a 96-well plate). 1.14 Then 200 μl of the 100× dilution in 1.13 was transferred to Eppendorf tubes and kept cold until use. 1.15 100 μl of culture with an OD600 on approximately 0.001 was dispensed to each well of columns 1 to 11. 1.16 The plate was closed. Covered with aluminium foil and small holes were created with a 100-200 μL tip.\n(§6) 1.17 The 96-well plate was then incubated at 37° C. with agitation and left for 16-hours.\n(§7) 1.18 Verification of standard inoculum: The 100× diluted culture of 1.13 was used to create 10^−1 to 10^−4 dilutions in PBS/0.9% saline (100 μl sample to 900 μl PBS, mix well and continue until 10^−4). 1.19 10 μl of the 10^−2, 10^−3 and 10^−4 dilutions in 1.18 were spotted onto very dry MH or BHI plates in triplicates. 1.20 Then incubated overnight at 37° C. 1.21 The plates were examined manually or by using the plate reader."}, "E. faecalis cells": {"test_system": "E. faecalis cells", "test": "MIC in vitro broth micro-dilution assay, E. faecalis", "type": "cell-based, Enterococcus faecalis", "conditions": "Enterococcus faecalis; lowest concentration to fully inhibit visible growth (OD600); clinical isolate; read-out: in vitro susceptibility (MIC) E. Faecalis", "experimental": "as §1, §2, §3, §4, §5, §6, §7"}, "S. pneumonia cells": {"test_system": "S. pneumonia cells", "test": "MIC in vitro broth micro-dilution assay, S. pneumonia", "type": "cell-based, Streptococcus pneumonia", "conditions": "Streptococcus pneumoniae; lowest concentration to fully inhibit visible growth (OD600); clinical isolate; read-out: in vitro susceptibility (MIC) S. Pneumonia", "experimental": "as §1, §2, §3, §4, §5, §6, §7"}, "[2]": {"test_system": "vancomycin-resistant enterococci (VRE) cells, VRE 5", "test": "MIC in vitro broth micro-dilution assay, VRE 5", "type": "cell-based", "conditions": "Enterococcus, VRE; lowest concentration to fully inhibit visible growth (OD600); clinical isolate, ampicillin, ciprofloxacin, vancomycin and linezolid resistant; read-out: in vitro susceptibility (MIC) VRE 5", "experimental": "as §1, §2, §3, §4, §5, §6, §7"}, "[3]": {"test_system": "vancomycin-resistant enterococci (VRE) cells, VRE 1", "test": "MIC in vitro broth micro-dilution assay, VRE 1", "type": "cell-based", "conditions": "Enterococcus, VRE; lowest concentration to fully inhibit visible growth (OD600); clinical isolate, ampicillin, ciprofloxacin and vancomycin resistant; read-out: in vitro susceptibility (MIC) VRE 1", "experimental": "as §1, §2, §3, §4, §5, §6, §7"}, "[4]": {"conditions": "lowest concentration to fully inhibit visible growth (OD600), ATCC strain, read-out: in vitro susceptibility (MIC) MRSA USA3000"}},
  "note": "Like-named read-outs stand apart in the source and are kept apart here.",
  "data": [
    {"smiles": "C=C[C@]1(C)C[C@@H](OC(=O)Cn2cc(-c3ccc(Cn4cnc5c(N)nc(N)nc54)cc3)nn2)[C@]2(C)[C@H](C)CC[C@]3(CCC(=O)[C@H]32)[C@@H](C)[C@@H]1O", "note": "[C6, 22-[4-(4-((2,6-Diamino-9H-purin-9-yl)methyl)phenyl)-1H-1,2,3-triazol-1-yl]-22-deoxypleuromutilin]", "values": [
      {"measurement": "MIC", "setting": "[1]; [4]", "value": 0.06, "unit": "µg/mL"},
      {"measurement": "MIC", "setting": "E. faecalis cells", "value": 0.25, "unit": "µg/mL"},
      {"measurement": "MIC", "setting": "S. pneumonia cells", "value": 0.25, "unit": "µg/mL"},
      {"measurement": "MIC", "setting": "[2]", "value": 0.25, "unit": "µg/mL"},
      {"measurement": "MIC", "setting": "[3]", "value": 0.25, "unit": "µg/mL"}
    ]},
    {"smiles": "C=C[C@]1(C)C[C@@H](OC(=O)Cn2cc(-c3cccc(Nc4ncnc5[nH]cnc45)c3)nn2)[C@]2(C)[C@H](C)CC[C@]3(CCC(=O)[C@H]32)[C@@H](C)[C@@H]1O", "note": "[C18, 22-[4-(3-((9H-purin-6-yl)amino)phenyl)-1,2,3-triazole-1-yl]-22-deoxypleuromutilin]", "values": [
      {"measurement": "MIC", "setting": "[1]; [4]", "value": 0.06, "unit": "µg/mL"},
      {"measurement": "MIC", "setting": "E. faecalis cells", "value": 0.5, "unit": "µg/mL"},
      {"measurement": "MIC", "setting": "S. pneumonia cells", "value": 0.5, "unit": "µg/mL"},
      {"measurement": "MIC", "setting": "[2]", "value": 0.25, "unit": "µg/mL"},
      {"measurement": "MIC", "setting": "[3]", "value": 0.25, "unit": "µg/mL"}
    ]},
    {"smiles": "C=C[C@]1(C)C[C@@H](OC(=O)Cn2cc(-c3ccc(Cn4cnc5c(N)ncnc54)c(OC)c3)nn2)[C@]2(C)[C@H](C)CC[C@]3(CCC(=O)[C@H]32)[C@@H](C)[C@@H]1O", "note": "[C8, 22-[4-(4-((6-Amino-9H-purin-9-yl)methyl)-3-methoxyphenyl)-1H-1,2,3-triazol-1-yl]-22-deoxypleuromutilin]", "values": [
      {"measurement": "MIC", "setting": "[1]; [4]", "value": 0.06, "unit": "µg/mL"},
      {"measurement": "MIC", "setting": "E. faecalis cells", "value": 0.25, "unit": "µg/mL"},
      {"measurement": "MIC", "setting": "S. pneumonia cells", "value": 0.25, "unit": "µg/mL"},
      {"measurement": "MIC", "setting": "[2]", "value": 0.12, "unit": "µg/mL"},
      {"measurement": "MIC", "setting": "[3]", "value": 0.12, "unit": "µg/mL"}
    ]},
    {"smiles": "C=C[C@]1(C)C[C@@H](OC(=O)Cn2cc(-c3ccc([C@@H](C)n4cnc5c(N)ncnc54)cc3)nn2)[C@]2(C)[C@H](C)CC[C@]3(CCC(=O)[C@H]32)[C@@H](C)[C@@H]1O", "note": "[C12, 22-[4-(4-((R)-1-(6-amino-9H-purin-9-yl)ethyl)phenyl)-1H-1,2,3-triazol-1-yl]-22-deoxypleuromutilin]", "values": [
      {"measurement": "MIC", "setting": "[1]; [4]", "value": 0.12, "unit": "µg/mL"},
      {"measurement": "MIC", "setting": "E. faecalis cells", "value": 0.25, "unit": "µg/mL"},
      {"measurement": "MIC", "setting": "S. pneumonia cells", "value": 0.25, "unit": "µg/mL"},
      {"measurement": "MIC", "setting": "[2]", "value": 0.25, "unit": "µg/mL"},
      {"measurement": "MIC", "setting": "[3]", "value": 0.25, "unit": "µg/mL"}
    ]},
    {"smiles": "C=C[C@]1(C)C[C@@H](OC(=O)Cn2cc(-c3cc(C#N)ccc3O)nn2)[C@]2(C)[C@H](C)CC[C@]3(CCC(=O)[C@H]32)[C@@H](C)[C@@H]1O", "note": "[C19, 22-[4-(5-cyano-2-hydroxyphenyl)-1H-1,2,3-triazol-1-yl]-22-deoxypleuromutilin]", "values": [
      {"measurement": "MIC", "setting": "[1]; [4]", "value": 0.25, "unit": "µg/mL"},
      {"measurement": "MIC", "setting": "E. faecalis cells", "value": 2, "unit": "µg/mL"},
      {"measurement": "MIC", "setting": "S. pneumonia cells", "value": 4, "unit": "µg/mL"},
      {"measurement": "MIC", "setting": "[2]", "value": 1, "unit": "µg/mL"},
      {"measurement": "MIC", "setting": "[3]", "value": 1, "unit": "µg/mL"}
    ]},
    {"smiles": "C=C[C@]1(C)C[C@@H](OC(=O)Cn2cc(-c3cccc(NC(=O)c4ccc(OC)cc4)c3)nn2)[C@]2(C)[C@H](C)CC[C@]3(CCC(=O)[C@H]32)[C@@H](C)[C@@H]1O", "note": "[C15, 22-[4-(3-(4-methoxybenzamido)phenyl)-1,2,3-triazole-1-yl]-22-deoxypleuromutilin]", "values": [
      {"measurement": "MIC", "setting": "[1]; [4]", "value": 0.12, "unit": "µg/mL"},
      {"measurement": "MIC", "setting": "E. faecalis cells", "value": 0.25, "unit": "µg/mL"},
      {"measurement": "MIC", "setting": "S. pneumonia cells", "value": 0.25, "unit": "µg/mL"},
      {"measurement": "MIC", "setting": "[2]", "value": 0.25, "unit": "µg/mL"},
      {"measurement": "MIC", "setting": "[3]", "value": 0.12, "unit": "µg/mL"}
    ]},
    {"smiles": "C=C[C@]1(C)C[C@@H](OC(=O)Cn2cc(-c3ccc(Cn4cnc5c(N)ncnc54)cc3)nn2)[C@]2(C)[C@H](C)CC[C@]3(CCC(=O)[C@H]32)[C@@H](C)[C@@H]1O", "note": "[C1]", "values": [
      {"measurement": "MIC", "setting": "[1]; [4]", "value": 0.03, "unit": "µg/mL"},
      {"measurement": "MIC", "setting": "[1]; read-out: MIC value, MRSA USA300 cells", "value": 0.03, "unit": "µg/mL"},
      {"measurement": "MIC", "setting": "E. faecalis cells", "value": 0.25, "unit": "µg/mL"},
      {"measurement": "MIC", "setting": "S. pneumonia cells", "value": 0.05, "unit": "µg/mL"},
      {"measurement": "MIC", "setting": "[2]", "value": 0.25, "unit": "µg/mL"},
      {"measurement": "MIC", "setting": "[3]", "value": 0.25, "unit": "µg/mL"}
    ]},
    {"smiles": "C=C[C@]1(C)C[C@@H](OC(=O)Cn2cc(-c3ccc(Cn4cnc5c(N)ncnc54)c(O)c3)nn2)[C@]2(C)[C@H](C)CC[C@]3(CCC(=O)[C@H]32)[C@@H](C)[C@@H]1O", "note": "[C9, 22-[4-(4-((6-amino-9H-purin-9-yl)methyl)-3-hydroxyphenyl)-1H-1,2,3-triazol-1-yl]-22-deoxypleuromutilin]", "values": [
      {"measurement": "MIC", "setting": "[1]; [4]", "value": 0.03, "unit": "µg/mL"},
      {"measurement": "MIC", "setting": "E. faecalis cells", "value": 0.25, "unit": "µg/mL"},
      {"measurement": "MIC", "setting": "S. pneumonia cells", "value": 0.25, "unit": "µg/mL"},
      {"measurement": "MIC", "setting": "[2]", "value": 0.25, "unit": "µg/mL"},
      {"measurement": "MIC", "setting": "[3]", "value": 0.25, "unit": "µg/mL"}
    ]}
  ]
}
